Read-outs that look alike come from different tables or passages of the source.
Tests used:
CHOK1 GS cells = assay: CellTiter-Glo cytotoxicity assay in CHOK1 GS cell line; format: cell-based, Chinese hamster; conditions: Cricetulus griseus
Experimental: To assay the potential toxicity induced in the CHO cell culture by the Trp degradation products found in this study, a cytotoxicity assay CellTiter-Glo® Luminescent Cell Viability Assay (Cat #G7572, Promega, Madison, WI, USA) was used, following the manufacturer’s instructions. Briefly, the cells were seeded with 25,000 viable cells per cavity of a 96-well opaque white cell culture plate (Thermo Fisher, Waltham, MA, USA) in 80 µL of a pre-warmed medium. […] A DMSO control was added in the same concentration range as the tryptophan degradation compounds were diluted.

CHOZN 10 cells = assay: CellTiter-Glo cytotoxicity assay in CHOZN 10 cell line; format: cell-based, Chinese hamster; conditions: Cricetulus griseus, read-out: [GI50] CHOZN 10
Experimental: (§1) To assay the potential toxicity induced in the CHO cell culture by the Trp degradation products found in this study, a cytotoxicity assay CellTiter-Glo® Luminescent Cell Viability Assay (Cat #G7572, Promega, Madison, WI, USA) was used, following the manufacturer’s instructions. Briefly, the cells were seeded with 25,000 viable cells per cavity of a 96-well opaque white cell culture plate (Thermo Fisher, Waltham, MA, USA) in 80 µL of a pre-warmed medium. Tryptophan degradation compounds were added in triplicates to the cells, ranging from 1 mM to 46 nM. A DMSO control was added in the same concentration range as the tryptophan degradation compounds were diluted. The dose response curves were fitted with a 4PL model by GraphPad Prism v.7 (GraphPad Software, San Diego, CA, USA) after luminescence readout with an EnVision 2104 Multilabel Reader (Perkin Elmer, Waltham, MA, USA).

CHOK1 cells = assay: CellTiter-Glo cytotoxicity assay in CHOK1 cell line; format: cell-based, Chinese hamster; conditions: Cricetulus griseus
Experimental: as §1

CHOZN 6 cells = assay: CellTiter-Glo cytotoxicity assay in CHOZN 6 cell line; format: cell-based, Chinese hamster; conditions: Cricetulus griseus, read-out: [GI50] CHOZN 6
Experimental: as §1

cancer cell lines = tested on: cancer cell lines; set-up: method as in PMID 22047643; conditions: cited from earlier work
CHO cells [1] = conditions: cited from earlier work
[2] = Color measurement (ΔE*) of standards spiked into water; format: physicochemical; conditions: theoretical 500 µM, 1% DMSO, ΔE* > 1 deemed significant
Experimental: (§2) Compounds were dissolved in DMSO at 50 mM and then spiked into the solutions to achieve a final compound concentration of 500µM. Some of the tested compounds formed a precipitate immediately upon spiking of the DMSO solution. As the precipitates in solution can interfere with the absorption measurement, each sample was centrifuged prior to taking absorption measurements, meaning that the final concentrations were not all at 500 µM. […] In stability experiments, eight of these nine compounds (all except 46) were present in at least one condition in the degraded water samples, and four of these nine compounds (28, 31, 38, and 46) were present in the degraded feed.
(§3) Absorbance measurements were taken in the range of 380 nm to 780 nm (20 nm steps) of 100 µL of the samples in four technical replicates (Envision, Perkin Elmer, Waltham, MA, USA). From the absorbance values, the change in color was calculated using L*a*b* and ΔE* values according to DIN 5033-3 and DIN 6174 norms. The CIE 1931 standard observer (2°) and the D65 illuminant were selected.
(§4) Chemical standards were prepared as 50 mM stocks in DMSO and then spiked into the aqueous solutions (either water or feed) to achieve a theoretical compound concentration of 500 µM (1% DMSO). The solutions were centrifuged, and the absorbance measurements of these solutions was measured and converted to ΔE* values as described above. The control condition was pure DMSO (1% v/v).

[3] = Color measurement (ΔE*) of standards spiked into feed; format: physicochemical; conditions: theoretical 500 µM, 1% DMSO, ΔE* > 1 deemed significant
Experimental: as §2, §3, §4

CHO cells [4] = assay: CHO cell toxicity summarised across the four CHO cell lines; format: cell-based, Chinese hamster; conditions: Cricetulus griseus; across all four CHO cell lines; read-out: GI50 across all cell lines
Experimental: as §1

[5] = CHO-K1, read-out: [GI50] CHOK1 GS
[6] = CHO-K1, CHOK1 GS cell line, 1 mM to 46 nM, 4PL fit, read-out: [GI50] CHOK1 GS
[7] = CHOZN 10 cell line, 1 mM to 46 nM, 4PL fit
[8] = CHO-K1, CHOK1 cell line, 1 mM to 46 nM, 4PL fit, read-out: [GI50] CHOK1
[9] = CHOZN 6 cell line, 1 mM to 46 nM, 4PL fit

Oc1ccnc2ccccc12 [Compound 20, 4-Hydroxyquinoline]
GI50 (CHOK1 GS cells; [5]): > 1000 µM

O=CCc1c[nH]c2ccccc12 [Compound 12, Indole-3-acetaldehyde]
GI50 (CHOK1 GS cells; [6]): 64.5 µM | GI50 (CHOZN 10 cells; [7]): 92.3 µM | GI50 (CHOK1 cells; [8]): 116 µM | GI50 (CHOZN 6 cells; [9]): 54.5 µM

CC(C)CC1NC(C(=O)O)Cc2c1[nH]c1ccccc21 (stereo not shown) [Compound 56, 2,3,4,9-Tetrahydro-1-(2-methylpropyl)-1H-pyrido[3,4-b]indole-3-carboxylic acid]
GI50 (CHOK1 GS cells; [6]): > 1000 µM

O=C(c1c[nH]c2ccccc12)c1nccc2c1[nH]c1ccccc12 [Compound 32, 1H-Indol-3-yl-9H-pyrido[3,4-b]indol-1-ylmethanone]
GI50 (CHOK1 GS cells; [6]): > 1000 µM | toxicity against some cancer cell lines (cancer cell lines): demonstrated toxicity against some cancer cell lines

NC(=O)Cc1c[nH]c2ccccc12 [Compound 47, 3-Indoleacetamide]
GI50 (CHOK1 GS cells; [6]): > 1000 µM

O=C1Cc2ccccc2N1 [Compound 19, 2-Oxindole]
GI50 (CHOK1 GS cells; [6]): > 1000 µM

O=C(O)CCC(=O)C(=O)O [aKG, a-Ketoglutaric acid]
effect on the CHO cell culture (CHO cells [1]; up to 50 mM): no detrimental effect

O=C(O)CCC(=O)O [Compound 66, succinic acid]
toxicity to CHO cells (CHO cells [1]): not toxic to CHO cells

O=C(O)c1nccc2c1[nH]c1ccccc12 [Compound 5, 9H-Pyrido[3,4-b]indole-1-carboxylic acid]
GI50 (CHOK1 GS cells; [6]): 118 µM | GI50 (CHOZN 10 cells; [7]): 75.5 µM | Color change as measured by ΔE* in water [2]: significant color change | Color change as measured by ΔE* in feed [3]: significant color change | GI50 (CHOK1 cells; [8]): 158 µM | GI50 (CHOZN 6 cells; [9]): 76.7 µM

O=C(O)c1cc2c([nH]c3ccccc32)c(-c2ccnc3ccccc23)n1 [Compound 38]
GI50 (CHOK1 GS cells; [6]): 118 µM | GI50 (CHOZN 10 cells; [7]): 114 µM | Color change as measured by ΔE* in water [2]: significant color change | GI50 (CHOK1 cells; [8]): 124 µM | GI50 (CHOZN 6 cells; [9]): 98.9 µM

Cc1nccc2c1[nH]c1ccccc12 [Compound 28, Harmane]
GI50 (CHOK1 GS cells; [5]): 170 µM | GI50 (CHOZN 10 cells): 77.3 µM | Color change as measured by ΔE* in feed [3]: significant color change | GI50 (CHOK1 cells; CHO-K1, read-out: [GI50] CHOK1): 74.9 µM | GI50 (CHOZN 6 cells): 65.5 µM

NC(CC1C(=O)Nc2ccccc21)C(=O)O (stereo not shown) [Compound 3, 2-amino-3-(2-oxo-2,3-dihydro-1h-indol-3-yl)propanic acid (Oia)]
GI50 (CHOK1 GS cells; [6]): > 1000 µM

O=C(O)c1cc2c([nH]c3ccccc32)c(-c2ccccc2)n1 [Compound 16]
GI50 (CHOK1 GS cells; [6]): 76.6 µM | GI50 (CHOZN 10 cells; [7]): 57.6 µM | Color change as measured by ΔE* in water [2]: significant color change | GI50 (CHOK1 cells; [8]): 74.9 µM | GI50 (CHOZN 6 cells; [9]): 88.5 µM

NCCc1c(O)[nH]c2ccccc12 [Compound 9]
GI50 (CHOK1 GS cells; [6]): > 1000 µM

c1ccc2ncccc2c1 [Compound 8, Quinoline]
GI50 (CHOK1 GS cells; [5]): > 1000 µM

OC12CCNC1Nc1ccccc12 (stereo not shown) [Compound 10]
GI50 (CHOK1 GS cells; [6]): > 1000 µM

CC(=O)c1nccc2c1[nH]c1ccccc12 [Compound 62, 1-Acetyl-β-carboline]
GI50 (CHOK1 GS cells; [6]): > 1000 µM

Cc1ncc(CO)c(C2NC(C(=O)O)Cc3c2[nH]c2ccccc32)c1O (stereo not shown) [Compound 42]
GI50 (CHOK1 GS cells; [6]): > 1000 µM

Nc1ccccc1C(=O)CC(N)C(=O)O (stereo not shown) [Compound 1, Kynurenine]
GI50 (CHOK1 GS cells; [6]): > 1000 µM

O=C(O)C1CC2(O)c3ccccc3NC2N1 (stereo not shown) [Compound 6, 1,2,3,3a,8,8a-Hexahydro-3a-hydroxypyrrolo[2,3-b]indole-2-carboxylic acid (PIC)]
GI50 (CHOK1 GS cells; [6]): > 1000 µM

c1ccc2c(c1)[nH]c1cnccc12 [Compound 27, Norharmane]
GI50 (CHOK1 GS cells; [5]): 127 µM | GI50 (CHOZN 10 cells): 64.5 µM | GI50 (CHOK1 cells; CHO-K1, read-out: [GI50] CHOK1): 74.8 µM | GI50 (CHOZN 6 cells): 98.5 µM

NCCc1c[nH]c2ccccc12 [Compound 11, Tryptamine]
GI50 (CHOK1 GS cells; [5]): > 1000 µM

O=C(O)c1ccnc2ccccc12 [Compound 21, 4-Quinolinecarboxylic acid]
GI50 (CHOK1 GS cells; [6]): > 1000 µM

O=C(O)c1cc2c([nH]c3ccccc32)c(C(=O)c2c[nH]c3ccccc23)n1 [Compound 31, 1-(1H-Indol-3-ylcarbonyl)-9H-pyrido[3,4-b]indole-3-carboxylic acid]
GI50 (CHOK1 GS cells; [6]): 34.6 µM | GI50 (CHOZN 10 cells; [7]): 14.4 µM | Color change as measured by ΔE* in feed [3]: significant color change | GI50 (CHO cells [4]): 10 to 22 µM | GI50 (CHOK1 cells; [8]): 21.6 µM | toxicity against some cancer cell lines (cancer cell lines): demonstrated toxicity against some cancer cell lines | GI50 (CHOZN 6 cells; [9]): 13 µM

O=C(O)C1Cc2c([nH]c3ccccc23)C=N1 (stereo not shown) [Compound 24]
GI50 (CHOK1 GS cells; [6]): 343 µM | GI50 (CHOZN 10 cells; [7]): 306 µM | Color change as measured by ΔE* in water [2]: significant color change | Color change as measured by ΔE* in feed [3]: significant color change | GI50 (CHO cells [4]): > 226 µM | GI50 (CHOK1 cells; [8]): 312 µM | GI50 (CHOZN 6 cells; [9]): 314 µM

NC(CC1(O)C(=O)Nc2ccccc21)C(=O)O [Compound 4, 3-(3-Hydroxy-2-oxo-2,3-dihydro-1H-indol-3-yl)-L-alanine (diOia)]
GI50 (CHOK1 GS cells; [6]): > 1000 µM

CC1NC(C(=O)O)CC12C(=O)Nc1ccccc12 (stereo not shown) [Compound 25]
GI50 (CHOK1 GS cells; [6]): > 1000 µM

CC1NC(C(=O)O)Cc2c1[nH]c1ccccc21 (stereo not drawn) [Compound 23, 1-Methyl-2,3,4,9-tetrahydro-1H-beta-carboline-3-carboxylic acid]
GI50 (CHOK1 GS cells; [6]): > 1000 µM

N[C@@H](Cc1c(Cc2c[nH]c3ccccc23)[nH]c2ccccc12)C(=O)O [Compound 14, 2-(3-Indolylmethyl)-L-tryptophan]
GI50 (CHOK1 GS cells; [6]): > 1000 µM

O=Cc1c[nH]c2ccccc12 [Compound 18, Indole-3-carboxaldehyde]
GI50 (CHOK1 GS cells; [6]): 295 µM | GI50 (CHOZN 10 cells; [7]): 258 µM | GI50 (CHO cells [4]): > 226 µM | GI50 (CHOK1 cells; [8]): 226 µM | GI50 (CHOZN 6 cells; [9]): 236 µM

OCc1nccc2c1[nH]c1ccccc12 [Compound 29]
GI50 (CHOK1 GS cells; [6]): 157 µM | GI50 (CHOZN 10 cells; [7]): 347 µM | GI50 (CHOK1 cells; [8]): 389 µM | GI50 (CHOZN 6 cells; [9]): > 1000 µM

NC(CC(=O)c1ccccc1NC=O)C(=O)O (stereo not shown) [Compound 2, N-Formylkynurenine]
GI50 (CHOK1 GS cells; [6]): > 1000 µM

Cc1nc(C(=O)O)cc2c1[nH]c1ccccc12 [Compound 45]
GI50 (CHOK1 GS cells; [6]): > 1000 µM

Source: article PMC8228365, “Degradation Products of Tryptophan in Cell Culture Media: Contribution to Color and Toxicity” (International Journal of Molecular Sciences, 2021)
